Data reported in patent US20230348424A1, “HETEROCYCLIC COMPOUNDS AND METHODS OF USE” (Schrödinger, Inc., priority 2022, published 2023).

What was measured:
[1] = molecular target: SOS1:KRAS (G12C) interaction (Homo sapiens (Human), UniProt Q07889); assay: SOS1 KRas(G12C) FRET Assay; assay type: binding; details: 0.5 nM His10-SOS1 (res. 564-1049), 2.5 nM GST-KRAS G12C (res. 1-169), 2 hrs at RT
Method in brief: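 GST-KRAS G12C (res. 1-169) at 2.5 nM and His10-SOS1 (res. 564-1049) at 0.5 nM, final, in PBS with 0.1% BSA, 5 mM MgCl2, 100 mM KF, 5 mM DTT and 0.5% DMSO. After 2 h at RT, FRET read at 665/615 nm and normalized to DMSO and no-SOS1 controls. IC50 by non-linear regression.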

human SOS1 = human SOS1 (Homo sapiens (Human), UniProt Q07889); assay: Surface Plasmon Resonance (SPR) SOS1 Binding Assay; details: biotinylated SOS1 (res. 564-1049), Biacore 8K, 25° C., kinetic or steady state fit, 1:1 binding; read-out: hSOS1 KD
Description: Binding to SOS1 was measured using a SPR assay with purified recombinant human SOS1 substrate (res. 564-1049 with N-terminal Avi tag; purified and biotinylated based on Hillig, et al., Proc Natl Acad Sci USA (2019); 116(7):2551-2560). SPR measurements were performed on a Biacore 8K SPR instrument (GE Healthcare, Sweden). Assays were performed at 25° C. using Series S SA sensor chips pre-coated with streptavidin (GE Healthcare, Cat. BR100531). Biotinylated SOS1 diluted in sample buffer (20 mM Tris HCI, 150 mM NaCl, 1 mM DTT, 0.05% TWEEN 20, 1 mM MgCh, pH 8.0) was captured to one flow cell of the chip to about 3,000 resonance units (RU) using sample buffer supplemented with 5% DMSO as a running buffer. Serial dilutions of the assayed compounds in the running buffer at 100, 50 or 0.5 µM were injected for 60 s at a flow rate of 30 µL/min and association phases were recorded. Dissociation of the samples was monitored for 600 s. Data processing was performed using Biacore Insight Software (Biacore, GE Healthcare). Sensorgrams recorded on a SA flow cell without captured protein were subtracted from sensorgrams recorded on the SOS1 surface. Blank injections of running buffer were used for double referencing and solvent correction was applied to all sample sensorgrams to correct for buffer mismatches. KDS were estimated using a kinetic or steady state, where applicable, fitting model describing a reversible equilibrium with 1:1 binding between SOS1 and the compound.

| IC50 [1] [nM] | Kd (human SOS1) [nM] | Molecule |
| --- | --- | --- |
| 11.3 | 7 | C[C@@H](NC(=O)c1cn(C2(C(F)F)CC2)c(=O)cc1N[C@@H]1CCN(C)C[C@@H]1F)c1cccc(C(F)F)c1F (single isomer, unassigned) [Example 63] |
| 25.6 | 7 | C[C@@H](NC(=O)c1cn([C@]2(C)CCOC2)c(=O)cc1NC1CCN(C)CC1)c1cccc(C(F)F)c1F (single isomer, unassigned) [Example 48] |
| 31.4 | 13 | C[C@@H](NC(=O)c1cn(C2(C(F)F)CC2)c(=O)cc1N[C@@H]1C[C@@H]2CN(C)C[C@@H]2C1)c1cccc(C(F)F)c1F (single isomer, unassigned) [Example 124] |
| 21.6 | 12 | C[C@@H](NC(=O)c1cn([C@H]2CC2(C)C)c(=O)cc1N[C@H]1[C@@H]2CN(C)C[C@@H]21)c1cccc(C(F)F)c1F [Example 95, N-((R)-1-(3-(difluoromethyl)-2-fluorophenyl)ethyl)-1-((S)-2,2-dimethylcyclopropyl)-4-(((lR,5S,6s)-3-methyl-3-azabicyclo[3.1.0]hexan-6-yl)amino)-6-oxo-1,6-dihydropyridine-3-carboxamide] |
| 53.4 | 20 | Cc1c([C@@H](C)NC(=O)c2cn(C3CCOCC3)c(=O)cc2N[C@H]2C[C@H](N(C)C)C2)cccc1C(F)(F)F [Example 7, 4-(((1r,3R)-3-(dimethylamino)cyclobutyl)amino)-N-((R)-1-(2-methyl-3-(trifluoromethyl)phenyl)ethyl)-6-oxo-1-(tetrahydro-2H-pyran-4-yl)-1,6-dihydropyridine-3-carboxamide] |
| 45.9 | 16 | Cc1c([C@@H](C)NC(=O)c2cn(C3CCOCC3)c(=O)cc2N[C@H]2CCN(C)C2)cccc1C(F)(F)F [Example 4, N-((R)-1-(2-methyl-3-(trifluoromethyl)phenyl)ethyl)-4-(((S)-1-methylpyrrolidin-3-yl)amino)-6-oxo-1-(tetrahydro-2H-pyran-4-yl)-1,6-dihydropyridine-3-carboxamide] |
| 13.6 | 6 | C[C@@H](NC(=O)c1cn(C2(C(F)F)CC2)c(=O)cc1NC1CCN(C)CC1)c1cccc(C(F)(F)F)c1F [Example 52, (R)-1-(1-(difluoromethyl)cyclopropyl)-N-(1-(2-fluoro-3-(trifluoromethyl)phenyl)ethyl)-4-((1-methylpiperidin-4-yl)amino)-6-oxo-1,6-dihydropyridine-3-carboxamide] |
| 23.2 | 11 | C[C@@H](NC(=O)c1cn(C23CC(C2)C3)c(=O)cc1N[C@H]1C[C@@H](N(C)C)C1)c1cccc(C(F)F)c1F [Example 133, 1-(bicyclo[1.1.1]pentan-1-yl)-N-((R)-1-(3-(difluoromethyl)-2-fluorophenyl)ethyl)-4-(((1s,3S)-3-(dimethylamino)cyclobuty 1)amino)-6-oxo-1,6-dihydropyridine-3-carboxamide] |
| 18.5 | 8 | C[C@@H](NC(=O)c1cn(C2(C(F)F)CC2)c(=O)cc1NC1CCN(C)CC1)c1cccc(C(C)(F)F)c1F [Example 51, (R)-N-(1-(3-(1,1-difluoroethyl)-2-fluorophenyl)ethyl)-1-(1-(difluoromethyl)cyclopropyl)-4-((1-methylpiperidin-4-yl)amino)-6-oxo-1,6-dihydropyridine-3-carboxamide] |
| 18.2 | 10 | C[C@@H](NC(=O)c1cn(C2CC(F)(F)C2)c(=O)cc1N[C@H]1[C@@H]2CN(C)C[C@@H]21)c1cccc(C(F)F)c1F [Example 100, 1-(3,3-difluorocyclobutyl)-N-((R)-1-(3-(difluoromethyl)-2-fluorophenyl)ethyl)-4-(((1R,5S,6s)-3-methyl-3-azabicyclo[3.1.0]hexan-6-yl)amino)-6-oxo-1,6-dihydropyridine-3-carboxamide] |
| 56.7 | 30 | Cc1c([C@@H](C)NC(=O)c2cn(C3CCOCC3)c(=O)cc2N[C@H]2CCCN(C)C2)cccc1C(F)(F)F [Example 6, N-((R)-1-(2-methyl-3-(trifluoromethyl)phenyl)ethyl)-4-(((S)-1-methylpiperidin-3-yl)amino)-6-oxo-1-(tetrahydro-2H-pyran-4-yl)-1,6-dihydropyridine-3-carboxamide] |
| 5.4 | 9 | C[C@@H](NC(=O)c1cn([C@H]2CCC2(F)F)c(=O)cc1NCC1(F)CN(C)C1)c1cccc(C(F)F)c1F [Example 146, 1-((S)-2,2-difluorocyclobutyl)-N-((R)-1-(3-(difluoromethyl)-2-fluorophenyl)ethyl)-4-(((3-fluoro-1-methylazetidin-3-yl)methyl)amino)-6-oxo-1,6-dihydropyridine-3-carboxamide] |
| 4.9 | 4 | C[C@@H](NC(=O)c1cn(C23CC(F)(C2)C3)c(=O)cc1N[C@H]1CCN(C)C[C@H]1F)c1cccc(C(F)F)c1F [Example 142, N-((R)-1-(3-(difluoromethyl)-2-fluorophenyl)ethyl)-4-(((3R,4S)-3-fluoro-1-methylpiperidin-4-yl)amino)-1-(3-fluorobicyclo[1.1.1]pentan-1-yl)-6-oxo-1,6-dihydropyridine-3-carboxamide] |
| 7.4 | 4 | C[C@@H](NC(=O)c1cn([C@]2(C)CCOC2)c(=O)cc1N[C@H]1[C@@H]2CN(C)C[C@@H]21)c1cccc(C(F)F)c1F [Example 152, N-((R)-1-(3-(difluoromethyl)-2-fluorophenyl)ethyl)-4-(((1R,5S,6s)-3-methyl-3-azabicyclo[3.1.0]hexan-6-yl)amino)-1-((R)-3-methyltetrahydrofuran-3-yl)-6-oxo-1,6-dihydropyridine-3-carboxamide] |
| 45.4 | 24 | C[C@@H](NC(=O)c1cn([C@H]2CCC2(F)F)c(=O)cc1N[C@H]1[C@@H]2CN(C)C[C@@H]21)c1cccc(C(F)F)c1F (single isomer, unassigned) [Example 104] |
| 26.7 | 23 | C[C@@H](NC(=O)c1cn(C2(C(F)F)CC2)c(=O)cc1N[C@H]1[C@@H]2CN(C)C[C@@H]21)c1cccc(C(F)(F)F)c1F [Example 130, 1-(1-(difluoromethyl)cyclopropyl)-N-((R)-1-(2-fluoro-3-(trifluoromethyl)phenyl)ethyl)-4-(((1R,5S,6s)-3-methyl-3-azabicyclo[3.1.0]hexan-6-yl)amino)-6-oxo-1,6-dihydropyridine-3-carboxamide] |
| 62.8 | 33 | C[C@@H](NC(=O)c1cn(C2CC2)c(=O)cc1N[C@H]1[C@@H]2CC[C@H]1CN(C)C2)c1cccc(C(F)F)c1F (single isomer, unassigned) [Example 141] |

| Molecule | IC50 [1] [nM] | Kd (human SOS1) [nM] |
| --- | --- | --- |
| C[C@@H](NC(=O)c1cn(C2(C(F)F)CC2)c(=O)cc1N[C@@H]1CN2CCC1CC2)c1cccc(C(F)F)c1F [Example 84, N-((R)-1-(3-(difluoromethyl)-2-fluorophenyl)ethyl)-1-(1-(difluoromethyl)cyclopropyl)-6-oxo-4-(((S)-quinuclidin-3-yl)amino)-1,6-dihydropyridine-3-carboxamide] | 10.2 | 9 |
| C[C@@H](NC(=O)c1cn(C23CC(C2)C3)c(=O)cc1N[C@H]1CN2CCC1CC2)c1cccc(C(F)F)c1F [Example 155, 1-(bicyclo[1.1.1]pentan-1-yl)-N-((R)-1-(3-(difluoromethyl)-2-fluorophenyl)ethyl)-6-oxo-4-(((R)-quinuclidin-3-yl)amino)-1,6-dihydropyridine-3-carboxamide] | 21.2 | 11 |
| C[C@@H](NC(=O)c1cn(C2(C(F)F)CC2)c(=O)cc1NC[C@H]1CC2CCN1CC2)c1cccc(C(F)F)c1F [Example 86, N-((R)-1-(3-(difluoromethyl)-2-fluorophenyl)ethyl)-1-(1-(difluoromethyl)cyclopropyl)-6-oxo-4-((((R)-quinuclidin-2-yl)methyl)amino)-1,6-dihydropyridine-3-carboxamide] | 73.1 | 29 |
| Cc1c([C@@H](C)NC(=O)c2cn(C3CCOCC3)c(=O)cc2NC2CCN(CCF)CC2)cccc1C(F)(F)F [Example 16, (R)-4-((1-(2-fluoroethyl)piperidin-4-yl)amino)-N-(1-(2-methyl-3-(trifluoromethyl)phenyl)ethyl)-6-oxo-1-(tetrahydro-2H-pyran-4-yl)-1,6-dihydropyridine-3-carboxamide] | 29.4 | 23 |
| N-((R)-1-(2-fluoro-3- (trifluoromethyl)phenyl)et hyl)-4-(((1R,5S,6s)-3- methyl-3- azabicyclo[3.1.0]hexan-6- yl)amino)-6-oxo-1-(1- (trifluoromethyl)cycloprop yl)-1,6-dihydropyridine-3- carboxamide [Example 120] | 35.7 | 24 |
